Measurements taken from patent US10626349B2, “Cleavable surfactants” (PROMEGA CORPORATION, priority 2007, dated 2020).

Legend:
[1] = Solubility of the surfactant; conditions: for solubility in aqueous solutions (in words) / solubility in aqueous solutions (concentration dissolved to): aqueous solution; for solubility (concentration dissolved to): in 50 mM ammonium bicarbonate; for solubilized in DMSO to: 100% DMSO
[2] = Acid and thermal degradation of the surfactant; conditions: for degradation after overnight incubation (in words): concentration not given; for degradation by acid (0.5% TFA) or by heat (boiling), in words: 3236: 0.1% solution in 0.5% TFA 30 minutes at 37° C. or 5 minutes of boiling without TFA; for acid-lability (in words): 0.5% TFA at 37° C. where stated (3237: 30 minutes), 3271 by TLC analysis; for thermolability (in words): 3266: 5 minutes at 95° C.
[3] = target: T1, Bacteriorhodopsin digested with chymotrypsin (Halobacterium salinarum, UniProt P02945); experiment: Bacteriorhodopsin/Chymotrypsin digest, HPLC peak area versus RapiGest control; type: biochemical; conditions: 0.025% surfactant, BR heated (boiled) with surfactant 5 minutes at 95° C., chymotrypsin 10:1, 1 hour at 37° C.; ratio to RapiGest control
T1 sequence (P02945 14-261 limits assumed): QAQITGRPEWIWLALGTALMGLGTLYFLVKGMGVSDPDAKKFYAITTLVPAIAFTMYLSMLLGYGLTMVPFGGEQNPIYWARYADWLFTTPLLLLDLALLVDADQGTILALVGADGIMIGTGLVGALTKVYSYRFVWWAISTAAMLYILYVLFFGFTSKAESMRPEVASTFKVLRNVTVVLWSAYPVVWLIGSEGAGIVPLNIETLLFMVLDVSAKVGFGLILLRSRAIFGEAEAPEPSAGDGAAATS
Description: Bacteriorhodopsin (25 μs) was heated with 0.025% Rapigest™ surfactant or the indicated compound of the invention for 5 minutes at 95° C., then digested with chymotrypsin (Sigma) at a 10:1 ratio in 125 μL 50 mM Ammonium bicarbonate for 1 hour at 37° C. After one hour TFA was added to 0.5-2% and the mixtures were incubated at 37° C. or 65° C. for 20 or 30 minutes. Degraded surfactant was removed by centrifugation at 14,000×g for 5 minutes. An aliquot of 50-100 μL of digested protein was analyzed by HPLC as described above.
Compound 3211, 3212, 3224 and Rapigest™ surfactant control for FIG. 13C reactions: Bacteriorhodopsin (25 μs) was solubilized with 0.025% compound of interest for 1-2 minutes at room temperature, then digested with chymotrypsin (Sigma) at a 10:1 ratio in 125 μL 50 mM Ammonium bicarbonate for 1 hour at 37° C. After one hour TFA was added to 0.5-2% and the mixtures were incubated at 37° C. or 65° C. for 20 or 30 minutes. Degraded surfactant was removed by centrifugation at 14,000×g for 5 minutes. An aliquot of 50-100 μL of digested protein was analyzed by HPLC as described above.
(§1) For each compound numbered below in Example 12, the rate of enhanced digestion was determined from the ratio of the surfactant peak area (surfactant # Pk. Area) to the Rapigest™ surfactant peak area (RG Pk area). Peak area was determined as the sum of all peaks integrated from 8-22 minutes.

[4] = target: T2, Myoglobin from horse heart digested with trypsin (Equus caballus, UniProt P68082); experiment: Myoglobin/Trypsin digest, HPLC peak area versus RapiGest control; type: biochemical; conditions: 0.01% surfactant, trypsin 50:1, 20 minutes at 37° C.; ratio to RapiGest control, >1 = more digestion
T2 construct: Myoglobin from horse heart; from tissue; host or cells: horse heart
T2 sequence (P68082 2-154 limits assumed): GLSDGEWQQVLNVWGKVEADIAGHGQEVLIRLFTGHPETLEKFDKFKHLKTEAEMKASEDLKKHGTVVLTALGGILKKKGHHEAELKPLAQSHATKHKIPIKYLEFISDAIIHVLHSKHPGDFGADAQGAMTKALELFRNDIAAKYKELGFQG
Description: Myoglobin from horse heart (typically 25 μs) was digested with trypsin (Promega) at a 50:1 ratio in a volume of 125 μL (typical) of 50 mM Ammonium bicarbonate for 20 minutes at 37° C. with 0.01% RapiGest™ surfactant or 0.01% of the indicated compound of the invention (upper and lower chromatograms, respectively). TFA was added to 0.5-2% and the mixtures were incubated at 37° C. or 65° C. for 20 or 30 minutes. Degraded surfactant was removed by centrifugation at 14,000×g for 5 minutes. HPLC analysis was performed on a 25-50 μL reaction sample using an HP1050 LC system with an Agilent Sorbax SB-C18 column (3.0×100 mm, 3.5 micron) and a gradient of 0.1% TFA (97.5% initial) and Acetonitrile, 0.01% TFA (55% final condition followed by a 100% wash step) and a flow rate of 0.75 mL/min. Peptides were detected at 214 and 280 nm.
as §1

[5] = Hydrolytic stability in 50 mM ammonium bicarbonate (reverse-phase HPLC); type: physicochemical; design: key: >>: compound 100% stable over course of experiment
Description: Hydrolytic stability was measured by monitoring the change in retention time of the intact surfactant by reverse-phase HPLC. The ½-life is defined as the time required to reach 50% degradation.

[6] = surfactant conc. 0.025% in 50 mM ammonium bicarbonate
[7] = surfactant conc. 1% in 50 mM ammonium bicarbonate

SMILES	surfactant Pk area/RG Pk area, Myoglobin/Trypsin digest [4]	solubility in aqueous solutions (concentration dissolved to) [1]	surfactant Pk area/RG Pk area, Bacteriorhodopsin/Chymotrypsin digest [3]	also measured
CCCCCCOc1ccc(COC(=O)NCCCS(=O)(=O)O)cc1 [Compound 3186]	–	–	0.45	solubility in aqueous solutions (in words) [1]: some solubility in aqueous solution; time to degradation of 0.01% solution ([2]; 37° C. where stated): ≤ 30 min
CCCCCCCCCCCC(C)(C)OC(=O)SCCS(=O)(=O)O [Compound 3189]	1.1	0.5%	0.6	degradation of 0.01% solution (in words) ([2]; 37° C. where stated): degraded only after overnight incubation
CCCCCC(OC(=O)NCCCS(=O)(=O)O)c1ccccc1 (stereo not shown) [Compound 3190]	–	0.5%	0.34	time to degradation of 0.01% solution ([2]; 37° C. where stated): 30 min; degradation of 0.1% solution (in words) [2]: overnight
CCCCCCCCCCCC(C)(C)OC(=O)NCC(O)CS(=O)(=O)[O-].[Na+] (stereo not shown) [Compound 3192]	1.3	0.5%	1.1	degradation of 0.01% solution (in words) ([2]; 37° C. where stated): degraded only after overnight incubation
CCCCCCCCCCCC(C)(C)OC(=O)Oc1ccc(N(CCCCS(=O)(=O)[O-])CCCCS(=O)(=O)O)cc1.[Na+] [Compound 3196]	0.65	0.5%	–	time to degradation of 0.01% solution ([2]; 37° C. where stated): 30 min; degradation of 0.1% solution (in words) [2]: overnight
CCCCCC/C=C/C(C)OC(=O)NCCCS(=O)(=O)O (stereo not shown) [Compound 3201]	0.3	0.5%	0.4	–
CCCCCC/C=C/C(C)OC(=O)NCC(O)CS(=O)(=O)[O-].[Na+] (stereo not shown) [Compound 3203]	–	0.5%	0.4	degradation of 0.1% solution (in words) [2]: degraded after overnight incubation
CCCCCC(OC(=O)SCCS(=O)(=O)O)c1ccccc1 (stereo not shown) [Compound 3207]	–	0.5%	–	time to degradation of 0.01% solution ([2]; 37° C. where stated): ≤ 60 min
CCCCCC/C=C/C(C)OC(=O)Oc1ccc(NCCCS(=O)(=O)[O-])cc1.[Na+] (stereo not shown) [Compound 3209]	2.1	0.5%	–	degradation after overnight incubation (in words) [2]: No degradation was observed even after overnight incubation
CCCCCCCC(C)(C)OC(=O)Oc1ccc(NCCCS(=O)(=O)[O-])cc1.[Na+] [Compound 3210]	0.3	0.5%	–	degradation rate (grade in words) [2]: moderate
CCCCCCCCCCCc1ccc(C(OCCc2ccc(N(CCCCS(=O)(=O)[O-])CCCCS(=O)(=O)[O-])cc2)(c2ccccc2)c2ccc(OCCCCCCCCCC)cc2)cc1.[Na+].[Na+] (stereo not shown) [Compound 3216]	–	–	0.7	solubilized in DMSO to [1]: 10%; solubility in aqueous solutions (in words) [1]: Insoluble in aqueous solutions
CCCCCCCCCCOc1ccc(C(OCCN(CCCCS(=O)(=O)[O-])CCCCS(=O)(=O)[O-])(c2ccccc2)c2ccc(OCCCCCCCCCC)cc2)cc1.[Na+].[Na+] [Compound 3218]	0.3	–	0.65	solubilized in DMSO to [1]: 10%; solubility in aqueous solutions (in words) [1]: Insoluble in aqueous solutions
CCCCCCCCCCOc1ccc(C(OCCc2ccc(N(CCCCS(=O)(=O)[O-])CCCCS(=O)(=O)[O-])cc2)(c2ccccc2)c2ccc(OC)cc2)cc1.[Na+].[Na+] (stereo not shown) [Compound 3219]	–	1%	–	–
CCCCCCCCCCCCOc1ccc(/C=N/CCCS(=O)(=O)O)cc1 [Compound 3221]	0.13	0.5%	0.5	–

Second part, led by results:

surfactant Pk area/RG Pk area, Myoglobin/Trypsin digest [4]	solubility in aqueous solutions (concentration dissolved to) [1]	SMILES	surfactant Pk area/RG Pk area, Bacteriorhodopsin/Chymotrypsin digest [3]	also measured
0.5	not more than 0.2%	CCCCCCCCCCCC(C)(C)OC(=O)Oc1ccc(NCCCCS(=O)(=O)O)cc1 [Compound 3195]	–	degradation after overnight incubation (in words) [2]: No degradation was observed even after overnight incubation
0.37	0.5%	CCCCCCC(OC(=O)NCCCS(=O)(=O)O)c1ccc(C(F)(F)F)cc1 (stereo not shown) [Compound 3199]	–	degradation after overnight incubation (in words) [2]: No degradation was observed even after overnight incubation
1.4	–	CCCCCCCCCCC(OC(=O)NCCCS(=O)(=O)[O-])c1ccc(OC)cc1.[Na+] (stereo not shown) [Compound 3212]	–	½-life ([5]; surfactant conc. 0.0025% in 50 mM ammonium bicarbonate): 3.7 h; ½-life [5, 6]: 21 h; ½-life ([5]; surfactant conc. 0.10% in 50 mM ammonium bicarbonate): 38 h; ½-life [5, 7]: >>; solubility (concentration dissolved to) [1]: 1%; time to degradation in 0.5% TFA ([2]; 0.5% TFA, 37° C. where stated, 0.1% solution for 3220 and 3266): 15 min; time to degradation by boiling without TFA ([2]; boiling without TFA): 5 min
0.9	–	CCCCCCCCCCCCC(OC(=O)NCCCS(=O)(=O)O)c1cc(OC)c(OC)c(OC)c1 (stereo not shown) [Compound 3267]	–	solubility (concentration dissolved to) [1]: 2%; degradation by acid (0.5% TFA) or by heat (boiling), in words [2]: Did not degrade in 0.5% TFA or by boiling
1	1%	CCCCCCCCCCC(OC(=O)NCCCS(=O)(=O)O)c1cccs1 (stereo not shown) [Compound 3269]	–	½-life ([5]; surfactant conc. 0.03% in 50 mM ammonium bicarbonate): 7 h; ½-life [5, 7]: 135 h
0.8	0.5%	CCCCCCCCCCC(OC(=O)NCCCS(=O)(=O)O)c1ccc(Br)o1 (stereo not shown) [Compound 3270]	–	½-life [5, 6]: 6.5 h; ½-life [5, 7]: 40 h
0.9	1%	CCCCCCCCCCC(OC(=O)NCCCS(=O)(=O)O)c1ccoc1 (stereo not shown) [Compound 3271]	–	½-life [5, 6]: >350 h; ½-life [5, 7]: >>; acid-lability (in words) [2]: Just partially acid-labile; thermolability (in words) [2]: thermostable
0.75	1%	CCCCCCCCCCC(OC(=O)NCCCS(=O)(=O)O)c1ccsc1 (stereo not shown) [Compound 3273]	–	acid-lability (in words) [2]: Just partially acid-labile; thermolability (in words) [2]: thermostable
1	1%	CCCCCCCCCCC(OC(=O)NCCCS(=O)(=O)O)c1ccc(Cl)o1 (stereo not shown) [Compound 3274]	–	½-life [5, 6]: ~6 h; degradation by acid (0.5% TFA) or by heat (boiling), in words [2]: Acid- and thermolabile
0.2	1%	CCCCCCCCCCC(OC(=O)NCCCS(=O)(=O)O)c1ccc(C(F)(F)F)o1 (stereo not shown) [Compound 3275]	–	½-life [5, 6]: >300 h; ½-life [5, 7]: >>; degradation by acid (0.5% TFA) or by heat (boiling), in words [2]: Fully acid- and thermostable at the tested conditions
